Experiments:
Format in all cases: in vivo
[1] = test system: Amaranthus retoflexus (AMARE); assay: Pre-emergence Test, AMARE; settings: 1000 g/ha, evaluated after 13 days
[2] = test system: Ipornoea hederacea (IPOHE); assay: Pre-emergence Test, IPOHE; settings: 1000 g/ha, evaluated after 13 days
[3] = test system: Echinochloa crus-galli (ECHCG); assay: Pre-emergence Test, ECHCG; settings: 1000 g/ha, evaluated after 13 days
Setaria faberi (SETFA) [4] = assay: Pre-emergence Test, SETFA; settings: 1000 g/ha, evaluated after 13 days
ZEAMX [5] = assay: Pre-emergence Test, ZEAMX; settings: 1000 g/ha, evaluated after 13 days
ABUTH [6] = assay: Pre-emergence Test, ABUTH; settings: 1000 g/ha, evaluated after 13 days
[7] = test system: Amaranthus retoflexus (AMARE); assay: Post-emergence Test, AMARE; settings: sprayed after 8 days cultivation, 1000 g/ha, evaluated after 13 days
Procedure: (§1) Seeds of a variety of test species are sown in standard soil in pots (Amaranthus retoflexus (AMARE), Solarium nigrum (SOLNI), Setaria faberi (SETFA), Lolium perenne (LOLPE), Echinochloa crus-galli (ECHCG), Ipornoea hederacea (IPOHE)). After 8 days cultivation under controlled conditions in a glasshouse (at 24° C./16° C., day/night; 14 hours light; 65% humidity), the plants are sprayed with an aqueous spray solution derived from the formulation of the technical active ingredient in acetone/water (50:50) solution containing 0.5% Tween 20 (polyoxyethylene sorbitan monolaurate, CAS RN 9005-64-5). Compounds are applied at 1000 g/ha unless otherwise stated. The test plants are then grown in a glasshouse under controlled conditions in a glasshouse (at 24° C./16° C., day/night; 14 hours light; 65% humidity) and watered twice daily. After 13 days the test is evaluated for the percentage damage caused to the plant. The biological activities are shown in the following table on a five-point scale (5=81-100%; 4=61-80%; 3=41-60%; 2=21-40%; 1=10-20%; 0=0%; −=not tested).

[8] = test system: Ipornoea hederacea (IPOHE); assay: Post-emergence Test, IPOHE; settings: sprayed after 8 days cultivation, 1000 g/ha, evaluated after 13 days
Procedure: as §1

[9] = test system: Echinochloa crus-galli (ECHCG); assay: Post-emergence Test, ECHCG; settings: sprayed after 8 days cultivation, 1000 g/ha, evaluated after 13 days
Procedure: as §1

Setaria faberi (SETFA) [10] = assay: Post-emergence Test, SETFA; settings: sprayed after 8 days cultivation, 1000 g/ha, evaluated after 13 days
Procedure: as §1

ZEAMX [11] = assay: Post-emergence Test, ZEAMX; settings: sprayed after 8 days cultivation, 1000 g/ha, evaluated after 13 days
Procedure: [The procedure below names another target; the source lists this target under the same test.] as §1

ABUTH [12] = assay: Post-emergence Test, ABUTH; settings: sprayed after 8 days cultivation, 1000 g/ha, evaluated after 13 days
Procedure: [The procedure below names another target; the source lists this target under the same test.] as §1

Structure (SMILES)	percentage damage caused to the plant, AMARE [1]	percentage damage caused to the plant, IPOHE [2]	percentage damage caused to the plant, ECHCG [3]	percentage damage caused to the plant, SETFA (Setaria faberi (SETFA) [4])	percentage damage caused to the plant, ZEAMX (ZEAMX [5])	percentage damage caused to the plant, ABUTH (ABUTH [6])	percentage damage caused to the plant, AMARE [7]	percentage damage caused to the plant, IPOHE [8]	percentage damage caused to the plant, ECHCG [9]	percentage damage caused to the plant, SETFA (Setaria faberi (SETFA) [10])	percentage damage caused to the plant, ZEAMX (ZEAMX [11])	percentage damage caused to the plant, ABUTH (ABUTH [12])
O=C(O)c1nn(-c2ccc(OC(F)(F)F)cc2)c2cccc(N3CCCC3)c2c1=O [Compound P23, 4-oxo-5-pyrrolidin-1-yl-1-[4-(trifluoromethoxy)phenyl] cinnoline-3-carboxylic acid]	0 (0=0%)	0 (0=0%)	0 (0=0%)	0 (0=0%)	0 (0=0%)	0 (0=0%)	0 (0=0%)	0 (0=0%)	0 (0=0%)	0 (0=0%)	0 (0=0%)	0 (0=0%)
CCOC(=O)c1nn(-c2ccc(OC(F)(F)F)cc2)c2cccc(/C(C)=N/O)c2c1=O [Compound P14, ethyl 5-[(E)-N-hydroxy-C-methyl-carbonimidoyl]-4-oxo-1-[4-(trifluoromethoxy)phenyl] cinnoline-3-carboxylate]	1 (1=10-20%)	0 (0=0%)	4 (4=61-80%)	4 (4=61-80%)	2 (2=21-40%)	1 (1=10-20%)	2 (2=21-40%)	1 (1=10-20%)	4 (4=61-80%)	3 (3=41-60%)	4 (4=61-80%)	3 (3=41-60%)
CCOC(=O)c1nn(-c2ccc(OC)c(OC)c2)c2cccc(C#N)c2c1=O [Compound P42, ethyl 5-cyano-1-(3,4-dimethoxyphenyl)-4-oxo-cinnoline-3-carboxylate]	0 (0=0%)	0 (0=0%)	0 (0=0%)	0 (0=0%)	0 (0=0%)	0 (0=0%)	0 (0=0%)	0 (0=0%)		0 (0=0%)	0 (0=0%)	0 (0=0%)
O=C(O)c1nn(-c2ccc(OC(F)(F)F)cc2)c2cccc([N+](=O)[O-])c2c1=O [Compound P40, 5-nitro-4-oxo-1-[4-(trifluoromethoxy)phenyl] cinnoline-3-carboxylic acid]	2 (2=21-40%)	0 (0=0%)	2 (2=21-40%)	5 (5=81-100%)	0 (0=0%)	3 (3=41-60%)	1 (1=10-20%)	0 (0=0%)	3 (3=41-60%)	5 (5=81-100%)	1 (1=10-20%)	
O=C(O)c1nn(-c2ccc(OC(F)(F)F)cc2)c2cccc(N3CCCCC3)c2c1=O [Compound P24, 4-oxo-5-(1-piperidyl)-1-[4-(trifluoromethoxy)phenyl] cinnoline-3-carboxylic acid]	0 (0=0%)	0 (0=0%)	1 (1=10-20%)	0 (0=0%)	0 (0=0%)	1 (1=10-20%)	0 (0=0%)	0 (0=0%)	0 (0=0%)	0 (0=0%)	0 (0=0%)	1 (1=10-20%)
O=C(O)c1nn(-c2ccc(OC(F)(F)F)cc2)c2cccc(N3CCOCC3)c2c1=O [Compound P25, 5-morpholino-4-oxo-1-[4-(trifluoromethoxy)phenyl] cinnoline-3-carboxylic acid]	0 (0=0%)	0 (0=0%)	0 (0=0%)	0 (0=0%)	0 (0=0%)	0 (0=0%)	0 (0=0%)	0 (0=0%)	0 (0=0%)	0 (0=0%)	0 (0=0%)	0 (0=0%)
O=C(O)c1nn(-c2ccc(OC(F)(F)F)cc2)c2cccc(-n3cc(C(F)(F)F)nn3)c2c1=O [Compound P21, 4-oxo-1-[4-(trifluoromethoxy)phenyl]-5-[4-(trifluoromethyl)triazol-1-yl]cinnoline-3-carboxylic acid]	1 (1=10-20%)	1 (1=10-20%)	1 (1=10-20%)	2 (2=21-40%)	0 (0=0%)	0 (0=0%)	1 (1=10-20%)	0 (0=0%)	0 (0=0%)	2 (2=21-40%)	1 (1=10-20%)	1 (1=10-20%)
CCOC(=O)c1nn(-c2ccc(OC(F)(F)F)cc2)c2cccc([N+](=O)[O-])c2c1=O [Compound P39, ethyl 5-nitro-4-oxo-1-[4-(trifluoromethoxy)phenyl] cinnoline-3-carboxylate]	0 (0=0%)	0 (0=0%)	2 (2=21-40%)	5 (5=81-100%)	0 (0=0%)	1 (1=10-20%)	0 (0=0%)	0 (0=0%)	3 (3=41-60%)	3 (3=41-60%)	0 (0=0%)	
COc1ccc(-n2nc(C(=O)O)c(=O)c3c(C#N)cccc32)cc1OC [Compound P41, 5-cyano-1-(3,4-dimethoxyphenyl)-4-oxo-cinnoline-3-carboxylic acid]	0 (0=0%)	0 (0=0%)	0 (0=0%)	0 (0=0%)	0 (0=0%)	0 (0=0%)	0 (0=0%)	1 (1=10-20%)		2 (2=21-40%)	0 (0=0%)	1 (1=10-20%)
CCOC(=O)c1nn(-c2ccc(OC(F)(F)F)cc2)c2cccc(-c3cc(C(F)F)on3)c2c1=O [Compound P12, ethyl 5-[5-(difluoromethyl)isoxazol-3-yl]-4-oxo-1-[4-(trifluoromethoxy)phenyl] cinnoline-3-carboxylate]	0 (0=0%)	0 (0=0%)	0 (0=0%)	0 (0=0%)		0 (0=0%)	0 (0=0%)	2 (2=21-40%)	0 (0=0%)	2 (2=21-40%)	1 (1=10-20%)	1 (1=10-20%)
